Here are results for one compound from article PMC5731698, “Identification and characterization of the three members of the CLC family of anion transport proteins in Trypanosoma brucei” (PLoS ONE, 2017).

The structures appear in SMILES notation.

One experiment deals with T1, TbVCL3 (Trypanosoma brucei, UniProt Q381B7).
T1 construct: gene Tb11.01.8420; full-length, untagged cRNA in Xenopus laevis oocytes; dimer expected (CLC family), heterodimer with endogenous Xenopus CLC not excluded
T1 sequence (Q381B7 1-918): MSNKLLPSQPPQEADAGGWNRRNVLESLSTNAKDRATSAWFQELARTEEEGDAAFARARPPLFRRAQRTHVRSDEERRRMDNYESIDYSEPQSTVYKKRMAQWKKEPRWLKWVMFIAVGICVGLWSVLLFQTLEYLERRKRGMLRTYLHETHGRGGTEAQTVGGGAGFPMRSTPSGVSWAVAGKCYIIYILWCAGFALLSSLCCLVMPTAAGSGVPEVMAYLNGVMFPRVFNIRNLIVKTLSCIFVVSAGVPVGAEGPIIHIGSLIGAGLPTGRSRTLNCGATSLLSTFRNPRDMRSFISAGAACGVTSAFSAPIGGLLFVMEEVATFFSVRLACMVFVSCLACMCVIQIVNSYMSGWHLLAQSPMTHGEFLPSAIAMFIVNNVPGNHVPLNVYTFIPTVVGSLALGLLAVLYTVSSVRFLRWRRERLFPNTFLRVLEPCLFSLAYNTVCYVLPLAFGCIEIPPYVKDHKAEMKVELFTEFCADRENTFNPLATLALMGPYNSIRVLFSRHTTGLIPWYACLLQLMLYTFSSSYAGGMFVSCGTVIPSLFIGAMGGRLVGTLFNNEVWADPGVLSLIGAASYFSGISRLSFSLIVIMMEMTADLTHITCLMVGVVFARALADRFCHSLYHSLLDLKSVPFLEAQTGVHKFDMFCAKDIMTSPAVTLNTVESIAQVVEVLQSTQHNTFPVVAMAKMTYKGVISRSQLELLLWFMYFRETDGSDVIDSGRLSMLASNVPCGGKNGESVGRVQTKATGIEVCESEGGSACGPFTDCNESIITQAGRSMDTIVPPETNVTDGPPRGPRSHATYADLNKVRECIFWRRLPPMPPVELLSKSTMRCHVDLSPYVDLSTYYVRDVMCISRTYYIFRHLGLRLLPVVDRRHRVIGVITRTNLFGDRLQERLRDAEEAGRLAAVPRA
The experiment can be described thus: two-electrode voltage clamp, Xenopus oocytes. It counts as cell-based. The source says: two-electrode voltage clamp, Xenopus oocytes on TbVCL3 | TbVCL3-expressing oocytes ...
For orientation: In two-electrode clamp one electrode senses voltage and the other passes current.

Another experiment concerns the target T2, TbVCL2 (Trypanosoma brucei, UniProt Q389H3).
T2 construct: gene Tb10.26.0220; full-length, untagged cRNA in Xenopus laevis oocytes; dimer expected (CLC family), heterodimer with endogenous Xenopus CLC not excluded
T2 sequence (Q389H3 1-941): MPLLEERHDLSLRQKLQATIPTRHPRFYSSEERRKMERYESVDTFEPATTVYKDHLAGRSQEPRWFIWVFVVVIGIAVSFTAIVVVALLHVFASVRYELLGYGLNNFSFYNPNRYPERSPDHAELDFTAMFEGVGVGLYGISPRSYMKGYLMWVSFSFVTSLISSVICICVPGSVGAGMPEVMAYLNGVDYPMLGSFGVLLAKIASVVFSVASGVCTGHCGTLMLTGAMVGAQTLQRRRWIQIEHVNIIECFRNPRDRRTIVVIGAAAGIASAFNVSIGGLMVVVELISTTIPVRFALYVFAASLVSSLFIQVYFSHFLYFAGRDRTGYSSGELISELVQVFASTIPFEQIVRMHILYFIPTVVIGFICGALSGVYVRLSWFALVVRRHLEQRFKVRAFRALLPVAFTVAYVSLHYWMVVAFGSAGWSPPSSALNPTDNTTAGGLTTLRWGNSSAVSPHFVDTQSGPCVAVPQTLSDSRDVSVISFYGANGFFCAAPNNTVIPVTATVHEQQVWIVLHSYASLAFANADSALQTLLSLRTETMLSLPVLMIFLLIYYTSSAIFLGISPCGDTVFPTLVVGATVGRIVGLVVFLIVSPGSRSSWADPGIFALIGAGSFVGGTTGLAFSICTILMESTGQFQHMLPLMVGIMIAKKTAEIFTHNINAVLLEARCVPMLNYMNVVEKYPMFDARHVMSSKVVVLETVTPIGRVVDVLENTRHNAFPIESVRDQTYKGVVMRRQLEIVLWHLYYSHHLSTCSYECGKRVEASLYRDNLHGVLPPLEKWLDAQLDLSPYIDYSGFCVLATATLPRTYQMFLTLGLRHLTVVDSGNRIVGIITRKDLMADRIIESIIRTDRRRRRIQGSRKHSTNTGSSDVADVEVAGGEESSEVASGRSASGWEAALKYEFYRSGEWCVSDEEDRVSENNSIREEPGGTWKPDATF
The experiment can be described thus: two-electrode voltage clamp, Xenopus oocytes. It counts as cell-based.

For the compound `O=S(=O)(O)c1cc(N=C=S)ccc1/C=C/c1ccc(N=C=S)cc1S(=O)(=O)O` [DIDS, 4,4-diisothiocyanostilbene-2,2-disulphonate], the figures for the half-inhibitory concentration (IC50) at TbVCL3 and against TbVCL2 were 56 ± 18 µM and 30 ± 3 µM, respectively.
